The results in this text go back to ChEMBL document CHEMBL1127761, “Two new phospholipase d inhibitors, sch 49211 and sch 49212, produced by the fungus nattrasia mangirferae” (Bioorg Med Chem Lett, 1994).

The subject of this test is HL-60. Briefly: In vitro inhibitory activity against phospholipase D (PLD) activation in HL-60 cells by phospholipase D assay. Format: cell-based. The following applies: Homo sapiens.

`O=C1C(O)=CC2(Oc3cccc4cccc(c34)O2)[C@@]23O[C@@]12[C@@H](O)C=C[C@H]3O` displayed an IC50 of 11 µM. For `O=C1C(O)=CC2(Oc3cccc4cccc(c34)O2)[C@@]23O[C@@]12[C@@H](O)CC[C@H]3O`, the IC50 was found to be 12 µM.
